From patent US4451464A, “Trifluoromethyl substituted tricyclic quinazolinones useful as tranquilizers” (Sandoz, Inc., priority 1982, dated 1984)

Target: calf brain benzodiazepine receptors (calf brain cortex)
Assay: Flunitrazepam Receptor Binding Assay, FBA TEST No. 2 (inhibition of specific 3H-flunitrazepam binding)
Conditions: 1.5 nM [3H]-Flunitrazepam, 15 min at 0° C., read-out: IC50 (concentration which inhibits specific binding of 3H-Flunitrazepam by 50%)
Description: Substantially similar results are obtainable in a Flunitrazepam Receptor Binding Assay as described by Chang et al., Eur. J. Pharmacol., 48, 213 (1978): when carried out with the non-substantive modifications evident from the following description (hereinafter FBA TEST No. 2): Fresh calf brain cortex is homogenized in a 19 fold volume of Tris-HCl buffer pH 7.4, using a Brinkman Polytron PT 20 and centrifuged at 50'000 g for […]. The pellets are frozen at -20° C. and resuspended in a 400 fold volume of Tris-buffer pH 7.4 before use for the binding assay. The assay mixtures consist of 1.8 ml of homogenate (corresponding to 4.5 mg of original tissue), 0.1 ml [^3 H]-Flunitrazepam (final concentration 1.5 nM), and 0.1 ml of buffer for determination of total binding or 0.1 ml of unlabelled Flunitrazepam (final concentration 1 μM) for determination of nonspecific binding, respectively. To assess the potency of various drugs in inhibiting specific binding, drugs are added (instead of buffer) to give 5 to 9 different concentrations between 1 nM and 10 μM, each in duplicate. After incubation for 15 min at 0° C., the assay mixtures are rapidly filtered through Whatman GF/B filters and washed twice with 5 ml of ice cold Tris-buffer. The filters are counted in Rialuma on a LKB Rach-Beta Liquid Scintillation Counter. […]

For CCCCN1CCn2c1nc1ccc(C(F)(F)F)cc1c2=O [Example 2, 1-n-butyl-7-trifluoromethyl-2,3-dihydro-imidazo[2,1-b]quinazolin-5(1H)-one], the IC50 was 15 nM.
